From patent US8093282B2, “Therapeutic N-aryl or N-heteroaryl pyrazolidine and pyrazolidinone derivatives” (Allergan, Inc., priority 2008, dated 2012)

Test system: lashes and adjacent hairs of the treated eye
Assay: Eyelash / hair growth observed in glaucoma patients treated in one eye
Format: in vivo, human
Conditions: glaucoma patient treated in only one eye
Description: In the course of treating patients having glaucoma, treatment may only be appropriate in one eye. […] The lash appearance on the lids of the treated eyes would have appeared quite attractive if it represented a bilateral phenomenon. As a result of its asymmetric nature, the long lashes on one side could be construed as disturbing from a cosmetic standpoint. A systemic examination was preformed as a result of the asymmetric phenomenon. It soon became apparent that this altered appearance was not an isolated finding. […] Definite differences could be identified to varying degrees in the lashes and adjacent hairs of all patients who were taking the drug on a unilateral basis for longer than 6 months.
The changes in the lashes were apparent on gross inspection in several patients once attention was focused on the issue. In those with light colored hair and lashes, the differences were only seen easily with the aid of the high magnification and lighting capabilities of the slit lamp biomicroscope. In the course of glaucoma follow-up examination, attention is generally immediately focused on the eye itself. As a result of the high power magnification needed only one eye is seen at a time and the eye is seen at a high enough power that the lashes are not in focus. […]

Question: With `CCNC(=O)CCC/C=C\C[C@@H]1[C@@H](/C=C/[C@@H](O)CCc2ccccc2)[C@H](O)C[C@@H]1O` [bimatoprost] as the compound, how does the “lash appearance in the treated eye versus the non-treated eye” value read?
Answer: The value was “longer, thicker, and fuller”.
